Experimental data as given in paper PMC9371267 (PLoS Biology, 2022).
Positions count from the first letter of the chain named.

Columns and labels:
Type in all cases: cell-based
[1] = target: T1, GALR2 L255^6.54A mutant (Homo sapiens, UniProt O43603, L255A); test: NanoBiT-based Gq activation assay, L255^6.54A; details: HEK293-A
T1 construct: expressed in transfected cells; host or cells: HEK293A
T1 sequence (O43603 1-387 L255A): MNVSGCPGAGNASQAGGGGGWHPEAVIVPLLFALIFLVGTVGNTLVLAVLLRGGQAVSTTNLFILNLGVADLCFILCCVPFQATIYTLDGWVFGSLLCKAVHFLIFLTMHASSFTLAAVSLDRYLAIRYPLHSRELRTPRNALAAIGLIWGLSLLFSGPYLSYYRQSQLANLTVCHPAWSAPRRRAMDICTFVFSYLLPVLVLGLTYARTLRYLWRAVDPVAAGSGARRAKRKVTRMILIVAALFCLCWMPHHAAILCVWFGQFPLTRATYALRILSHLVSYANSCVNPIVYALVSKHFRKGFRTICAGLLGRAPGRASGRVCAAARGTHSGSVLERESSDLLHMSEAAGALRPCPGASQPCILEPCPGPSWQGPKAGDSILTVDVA
Description: (§1) After an incubation for 1 day, the transfected cells were harvested, pelleted with centrifugation, and suspended in 2 mL of Hank’s balanced saline solution containing 0.01% bovine serum albumin (BSA fatty acid–free grade, SERVA) and 5 mM HEPES (pH 7.4) (assay buffer). The cell suspension was dispensed in a white 96-well plate at a volume of 80 μl per well and mixed with 20 μl of 50 μM coelenterazine (custom-synthesized by Amadis Chemical) diluted in the assay buffer. After 2-h incubation at room temperature, the plate was measured for baseline luminescence (SpectraMax L, Molecular Devices). […] Kinetics data points from 5 min to 10 min were averaged and normalized to the initial count and used as a G-protein activation index. The G-protein activation signals were fitted to a 4-parameter sigmoidal concentration-response curve (GraphPad Prism8), and pEC50 values (negative logarithmic values of EC50 values) and Span values (“Top”–“Bottom”) were obtained. For individual experiments, we calculated Emax by normalizing Span to the WT GALR2 and ΔpEC50 by subtracting pEC50 of the WT GALR2 performed in parallel. We also calculated Emax/EC50 of GALR2 mutants relative to that of GALR2 WT, a dimensionless parameter known as relative intrinsic activity (RAi) and used its log-transformed value (Log RAi) to denote receptor activity.

[2] = target: T2, GALR2 V174^ECL2A mutant (Homo sapiens, UniProt O43603, V174A); test: NanoBiT-based Gq activation assay, V174^ECL2A; details: HEK293-A; HEK293A; expression ~WT (1:5); normalized to WT (1:1); mean ± SEM, n = 3; ns p > 0.05 vs expression-matched WT
T2 construct: expressed in transfected cells; host or cells: HEK293A
T2 sequence (O43603 1-387 V174A): T1 sequence (O43603 1-387 L255A) with V174A, A255L
Description: as §1

[3] = target: T3, human GALR2 WT (Homo sapiens, UniProt O43603); test: NanoBiT-based Gq activation assay (Gq-PLCβ association), WT GALR2; details: HEK293-A, HEK293A, normalized to WT (1:1), mean ± SEM, n = 3
T3 construct: expressed in transfected cells; host or cells: HEK293A
T3 sequence (O43603 1-387): T1 sequence (O43603 1-387 L255A) with A255L
Description: as §1

[4] = target: T4, GALR2 F264^ECL3A mutant (Homo sapiens, UniProt O43603, F264A); test: NanoBiT-based Gq activation assay, F264^ECL3A; details: HEK293-A; HEK293A; expression ~WT (1:1); normalized to WT (1:1); mean ± SEM, n = 3; ns p > 0.05 vs expression-matched WT
T4 construct: expressed in transfected cells; host or cells: HEK293A
T4 sequence (O43603 1-387 F264A): T1 sequence (O43603 1-387 L255A) with A255L, F264A
Description: as §1

[5] = target: T5, GALR2 Y164^4.64×65F mutant (Homo sapiens, UniProt O43603, Y164F); test: NanoBiT-based Gq activation assay, Y164^4.64×65F; details: HEK293-A; HEK293A; expression ~WT (1:2.5); normalized to WT (1:1); mean ± SEM, n = 3; * p < 0.05 vs expression-matched WT
T5 construct: expressed in transfected cells; host or cells: HEK293A
T5 sequence (O43603 1-387 Y164F): T1 sequence (O43603 1-387 L255A) with Y164F, A255L
Description: as §1

Structure (SMILES): CC(C)C[C@H](NC(=O)CNC(=O)[C@H](CC(N)=O)NC(=O)[C@H](CCCCN)NC(=O)[C@H](CC(=O)O)NC(=O)[C@H](CO)NC(=O)[C@H](Cc1ccccc1)NC(=O)[C@H](CO)NC(=O)[C@H](CCCNC(=N)N)NC(=O)[C@H](Cc1c[nH]cn1)NC(=O)[C@H](CC(N)=O)NC(=O)CNC(=O)[C@@H](NC(=O)[C@H](C)NC(=O)[C@H](Cc1c[nH]cn1)NC(=O)[C@@H]1CCCN1C(=O)CNC(=O)[C@H](CC(C)C)NC(=O)[C@H](CC(C)C)NC(=O)[C@H](Cc1ccc(O)cc1)NC(=O)CNC(=O)[C@H](C)NC(=O)[C@H](CO)NC(=O)[C@H](CC(N)=O)NC(=O)[C@H](CC(C)C)NC(=O)[C@@H](NC(=O)[C@H](Cc1c[nH]c2ccccc12)NC(=O)CN)[C@@H](C)O)C(C)C)C(=O)N[C@H](C(=O)N[C@@H](CO)C(=O)O)[C@@H](C)O [galanin]
- Emax [1]: 64.7 ± 1.6%
- Emax [2]: 72.8 ± 11.3%
- Emax ([3]; WT (1:5) plasmid): 70.1 ± 8.7%
- Emax ([3]; WT (1:10) plasmid): 48.3 ± 4.7%
- Emax ([3]; WT (1:25) plasmid): 27.4 ± 5.1%
- Emax [4]: 90.3 ± 2.3%
- Emax [5]: 64.9 ± 2.4%
